Measured values reported in US9676715B2, “Bis-indolic derivatives, a process for preparing the same and their uses as a drug” (UNIVERSITE JOSEPH FOURIER, priority 2011, dated 2017).

Experiments:
[1] = test system: S. mitis CIP 103335; assay: MIC, microdilution method (9.1); type: cell-based, Streptococcus mitis; settings: Streptococcus mitis, CIP103335, 18 h, read-out: MIC
How it was run: (§1)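 Steps: inoculum prepared in MH broth; dispensed to give 5×10^5 CFU/ml final; compound added as two-fold series, 0.50-128 mg/L final; incubated at 37° C. in ambient air; MIC scored per CLSI M07-A8.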

[2] = test system: S. pneumoniae ATCC 6303; assay: MIC, microdilution method (9.1); type: cell-based, Streptococcus pneumoniae; settings: Streptococcus pneumoniae, ATCC6303, 10% sheep blood, 5% CO2, 18 h, read-out: MIC
How it was run: (§2)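 Mueller Hinton broth cultures at 5×10^5 CFU/ml final were exposed to doubling concentrations of compound from 0.50 to 128 mg/L. Incubation: 37° C., ambient atmosphere. Method per CLSI M07-A8; blood supplement and CO2 reserved for fastidious organisms.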

[3] = test system: S. epidermidis ATCC 12228; assay: MIC, microdilution method (9.1); type: cell-based, Staphylococcus epidermidis; settings: Staphylococcus epidermidis, ATCC12228, read after 18 h, read-out: MIC
How it was run: as §1

[4] = test system: HCT116 (human colon tumor); assay: In vitro cytotoxicity; type: cell-based; settings: read-out: % of cellular growth inhibition; for inhibition at 10 µM: HCT-116, 10^−5 M; for inhibition at 1 µM: HCT-116, 10^−6 M
Protocol: (§3) In vitro cytotoxicity was assayed on three cell lines—KB (human mouth carcinoma), MCR5 (human lung fibroblast) and HCT116 (human colon tumor). Results are presented in table IV as % of cellular growth inhibition in presence of 10^−5 M and 10^−6 M of the tested bis-indolic derivatives.

[5] = test system: MRC5 (human lung fibroblast); assay: In vitro cytotoxicity; type: cell-based; settings: read-out: % of cellular growth inhibition; for inhibition at 10 µM: 10^−5 M; for inhibition at 1 µM: 10^−6 M
Protocol: as §3

[6] = test system: KB (human mouth carcinoma); assay: In vitro cytotoxicity; type: cell-based; settings: read-out: % of cellular growth inhibition; for inhibition at 10 µM: 10^−5 M; for inhibition at 1 µM: 10^−6 M
Protocol: as §3

[7] = test system: S. pyogenes (group A) CIP 104226; assay: MIC, microdilution method (9.1); type: cell-based, Streptococcus pyogenes; settings: Streptococcus pyogenes, CIP104226, 18 h, read-out: MIC
How it was run: as §1

[8] = test system: S. agalactiae (group B) ATCC 12400; assay: MIC, microdilution method (9.1); type: cell-based, Streptococcus agalactiae; settings: Streptococcus agalactiae, ATCC12400, 18 h, read-out: MIC
How it was run: as §1

[9] = test system: E. faecalis ATCC 29212; assay: MIC, microdilution method (9.1); type: cell-based, Enterococcus faecalis; settings: Enterococcus faecalis, ATCC29212, 18 h, read-out: MIC
How it was run: as §1

[10] = test system: S. aureus ATCC 29213; assay: MIC, microdilution method (9.1); type: cell-based, Staphylococcus aureus; settings: Staphylococcus aureus, ATCC29213, read after 18 h, read-out: MIC
How it was run: as §1

[11] = test system: S. aureus ATCC 25923; assay: MIC, microdilution method (9.1); type: cell-based, Staphylococcus aureus; settings: Staphylococcus aureus, ATCC25923, read after 18 h, read-out: MIC
How it was run: as §1

[12] = test system: Staphylococcus aureus 1199B (overexpression of the NorA efflux pump); assay: Efflux pump inhibition assay with sub-inhibitory ciprofloxacin; type: cell-based; settings: S. aureus 1199B
Protocol: (§4) The efflux pump inhibition potential of the bis-indolic derivatives was tested using two steps.
(§5) The following experimental protocol was used: indolic derivatives (initially solubilised in DMSO at 10 mg/mL) were dispensed in a 96-wells microplate by two fold serial dilutions in Muller-Hinton medium (MH, Bio Rad) using a Biomek 2000 (Beckman) handling robot. 100 μL of the bacterial inoculum (an overnight culture at 37° C. in 5 mL MH diluted 100-fold) was then added in each well. The total volume was 200 μL in each well and the final bacteria concentration 10^6 CFU/mL (CFU: colony forming unit). The highest final indolic derivative concentration was 128 mg/L. Growth was assayed with a microplate reader by monitoring absorption at 620 nm after 1, 2, 5, 7 and 24 h incubation at 37° C. In addition, the plates were read visually after 24 hours incubation. Cultures containing 5 μL DMSO were used as growth controls. In addition, two controls containing a sub-inhibitory or a inhibitory antibiotic concentration for the tested strain were performed. The antibiotics used were ampicillin (0.5 and 32 μg/mL) for E. coli, kanamycin (0.5 and 16 μg/mL) for S. aureus ATCC 25923, ciprofloxacin (4 and 64 mg/L) for S. aureus 1199B, ciprofloxacin (0.5 and 2 mg/L) for S. aureus K2378. All experiments were performed in duplicate.
(§6) Efflux pump inhibition assays were then performed against resistant Staphylococcus aureus strains SA 1199B and SA K2378 for bis-indolic derivatives. […] The minimal inhibitory concentration (MIC) of the bis-indolic compound allowing a complete inhibition of the bacterial growth in the presence of ciprofloxacin was determined.

[13] = test system: Staphylococcus aureus K2378 (overexpresses the efflux pump NorA from a multicopy plasmid); assay: as above; type: cell-based; settings: S. aureus K2378; in the presence of ciprofloxacin 0.5 mg/L
Protocol: as §4, §5, §6

[14] = test system: E. faecium CIP 54.32; assay: MIC, microdilution method (9.1); type: cell-based, Enterococcus faecium; settings: Enterococcus faecium, CIP54, 18 h, read-out: MIC
How it was run: as §1

[15] = test system: Pseudomonas aeruginosa CIP 5933; assay: MIC, microdilution method (9.1); type: cell-based; settings: CIP5933, 18 h, read-out: MIC
How it was run: as §1

[16] = test system: Acinetobacter baumanii ATCC 19606; assay: MIC, microdilution method (9.1); type: cell-based; settings: Acinetobacter baumannii, ATCC19606, 18 h, read-out: MIC
How it was run: as §1

[17] = test system: Escherichia coli ATCC 25922; assay: MIC, microdilution method (9.1); type: cell-based; settings: ATCC25922, 18 h
How it was run: as §1

[18] = test system: Haemophilus influenzae ATCC 49766; assay: MIC, microdilution method (9.1); type: cell-based; settings: ATCC49766; Haemophilus influenzae ATCC 49766; 10% sheep blood, 5% CO2; 18 h; read-out: MIC
How it was run: as §2

[19] = test system: S. pneumoniae ATCC 49619; assay: MIC, microdilution method (9.1); type: cell-based; settings: Streptococcus pneumoniae, ATCC49619, 10% sheep blood, 5% CO2, 18 h
How it was run: as §2

[20] = test system: Listeria innocua CIP 80.11; assay: MIC, microdilution method (9.1); type: cell-based; settings: CIP80, 18 h, read-out: MIC
How it was run: as §1

[21] = test system: Klebsiella pneumoniae API ATCC 35657; assay: MIC, microdilution method (9.1); type: cell-based; settings: ATCC35657, 18 h, read-out: MIC
How it was run: as §1

[22] = test system: Enterobacter cloacae ATCC13047; assay: MIC, microdilution method (9.1); type: cell-based; settings: 18 h
How it was run: as §1

[23] = test system: Bacillus subtilis CIP 5262; assay: MIC, microdilution method (9.1); type: cell-based; settings: CIP5262, 18 h, read-out: MIC
How it was run: as §1

[24] = test system: Serratia marcescens CIP 103551; assay: MIC, microdilution method (9.1); type: cell-based; settings: CIP103551, 18 h
How it was run: as §1

[25] = test system: S. epidermidis CIP 81.55; assay: MIC, microdilution method (9.1); type: cell-based, Staphylococcus epidermidis; settings: Staphylococcus epidermidis, CIP81, read after 18 h, read-out: MIC
How it was run: as §1

[26] = test system: S. epidermidis CIP 103627; assay: MIC, microdilution method (9.1); type: cell-based, Staphylococcus epidermidis; settings: Staphylococcus epidermidis, CIP103627, read after 18 h, read-out: MIC
How it was run: as §1

[27] = test system: S. aureus ATCC 33592 (MRSA); assay: MIC, microdilution method (9.1); type: cell-based, Staphylococcus aureus; settings: Staphylococcus aureus, read after 18 h, read-out: MIC
How it was run: as §1

[28] = test system: S. aureus SA-1199B; assay: MIC, microdilution method (9.1); type: cell-based, Staphylococcus aureus; settings: Staphylococcus aureus, SA1199B, 18 h
How it was run: as §1

[29] = test system: S. aureus ATCC 6538; assay: MIC, microdilution method (9.1); type: cell-based, Staphylococcus aureus; settings: Staphylococcus aureus, ATCC6538, read after 18 h, read-out: MIC
How it was run: as §1

[30] = test system: S. aureus ATCC 9144; assay: MIC, microdilution method (9.1); type: cell-based, Staphylococcus aureus; settings: Staphylococcus aureus, ATCC9144, read after 18 h, read-out: MIC
How it was run: as §1

[31] = test system: S. aureus CIP 65.25 (MRSA); assay: MIC, microdilution method (9.1); type: cell-based, Staphylococcus aureus; settings: Staphylococcus aureus, read after 18 h, read-out: MIC
How it was run: as §1

[32] = test system: S. aureus CIP 103428; assay: MIC, microdilution method (9.1); type: cell-based, Staphylococcus aureus; settings: Staphylococcus aureus, CIP103428, read after 18 h, read-out: MIC
How it was run: as §1

[33] = test system: S. aureus CIP 65.6; assay: MIC, microdilution method (9.1); type: cell-based, Staphylococcus aureus; settings: Staphylococcus aureus, CIP65, read after 18 h, read-out: MIC
How it was run: as §1

[34] = test system: S. aureus ATCC 106414 (VISA); assay: MIC, microdilution method (9.1); type: cell-based, Staphylococcus aureus; settings: Staphylococcus aureus, read after 18 h, read-out: MIC
How it was run: as §1

[35] = test system: S. aureus; settings: penicillin M compounds; cited from earlier work
[36] = in the presence of ciprofloxacin 2 mg/L
[37] = in the presence of ciprofloxacin 4 mg/L

CC(C)(C)OC(=O)NCC(NC(=O)c1c[nH]c2ccccc12)c1c[nH]c2ccccc12 (stereo not drawn) [Compound 3a, tert-Butyl (2-(1H-indol-3-yl)-2-(1H-indole-3-carboxamido)ethyl)carbamate]
MIC [1]: > 128 µg/mL
MIC [2]: > 128 µg/mL
MIC [3]: > 128 µg/mL
inhibition at 10 µM [4]: 22 ± 5%
inhibition at 1 µM [4]: 11%
inhibition at 10 µM [5]: 14 ± 1%
inhibition at 1 µM [5]: 2%
inhibition at 10 µM [6]: 18 ± 1%
inhibition at 1 µM [6]: 16%
MIC [7]: > 128 µg/mL
MIC [8]: > 128 µg/mL
MIC [9]: > 128 µg/mL
MIC [10]: > 128 µg/mL
MIC [11]: > 128 µg/mL
MIC, mg/L (Ciprofloxacin concentration, mg/L) ([12]; in the presence of ciprofloxacin 1 mg/L): 2 (1) mg/L
MIC, mg/L (Ciprofloxacin concentration, mg/L) [12, 36]: 0.5 (2) mg/L
MIC, mg/L (Ciprofloxacin concentration, mg/L) [12, 37]: 0.25 (4) mg/L
MIC, mg/L (Ciprofloxacin concentration, mg/L) [13]: 4 (0.5) mg/L
MIC [14]: > 128 µg/mL
MIC [15]: > 128 µg/mL
MIC [16]: > 128 µg/mL
MIC [17]: > 128 µg/mL
MIC [18]: > 128 µg/mL
MIC [19]: > 128 µg/mL
MIC [20]: > 128 µg/mL
MIC [21]: > 128 µg/mL
MIC [22]: > 128 µg/mL
MIC [23]: > 128 µg/mL
MIC [24]: > 128 µg/mL

O=C(NC(C(=O)O)c1c[nH]c2ccc(Br)cc12)c1c[nH]c2ccc(Br)cc12 (stereo not drawn) [Compound 12, 2-(5-Bromo-1H-indol-3-yl)-2-(5-bromo-1H-indole-3-carboxamido) acetic acid]
MIC [25]: > 32 µg/mL
MIC [26]: > 32 µg/mL
MIC [3]: > 32 µg/mL
inhibition at 10 µM [4]: 0%
inhibition at 1 µM [4]: 0%
inhibition at 10 µM [5]: 3 ± 3%
inhibition at 1 µM [5]: 3%
inhibition at 10 µM [6]: 0%
inhibition at 1 µM [6]: 0%
melting point: 195 °C
MIC [27]: > 32 µg/mL
MIC [28]: > 32 µg/mL
MIC [29]: > 32 µg/mL
MIC [10]: > 32 µg/mL
MIC [30]: > 32 µg/mL
MIC [11]: > 32 µg/mL
MIC [31]: > 32 µg/mL
MIC [32]: > 32 µg/mL
MIC [33]: > 32 µg/mL
MIC [34]: > 32 µg/mL
MIC, mg/L (Ciprofloxacin concentration, mg/L) [12, 36]: 32 (2) mg/L
MIC, mg/L (Ciprofloxacin concentration, mg/L) [12, 37]: 64 (4) mg/L
MIC, mg/L (Ciprofloxacin concentration, mg/L) [13]: 64 (0.5) mg/L

COc1cccc(OC)c1C(=O)N[C@@H]1C(=O)N2[C@@H]1SC(C)(C)[C@@H]2C(=O)O [methicillin]
mutation frequency [35]: ~10^−9

Cc1onc(-c2ccccc2)c1C(=O)N[C@@H]1C(=O)N2[C@@H]1SC(C)(C)[C@@H]2C(=O)O [oxacillin]
mutation frequency [35]: ~10^−9
